Data as given in patent US5580552A, “7-glycosyloxybenzopyran derivative and antiallergic agent containing the derivative as active ingredient” (priority 1994, dated 1996).

Key:
[1] = tested on: contact dermatitis induced by picryl chloride; assay: Effect on contact dermatitis induced by picryl chloride in mice; type: in vivo; details: 50 mg/kg oral, 1 hour before and 16 hours after challenge; 24 hours after challenge
In short: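 Mice sensitized on shaved abdomen with 7 mg picryl chloride in acetone, challenged 7 days later with 1% picryl chloride in olive oil on left ear. Compounds given orally at 50 mg/kg in 0.5% CMCNa 1 h before and 16 h after challenge. Ear thickness increase at 24 h vs pre-challenge; inhibition % relative to vehicle.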

[2] = tested on: experimental asthma model (airway resistance); assay: Effect on experimental asthma model in guinea pigs (airway resistance); type: in vivo, guinea pigs (male hartley); details: 50 mg/kg oral (TABLE 6)
[3] = tested on: homologous passive cutaneous anaphylaxis (PCA) reaction; assay: Effect on homologous passive cutaneous anaphylaxis (PCA) reaction in rats; type: in vivo, rats (male wistar); details: 50 mg/kg oral, 1 hour before challenge (TABLE 2)
In short: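 Male Wistar rats sensitized intradermally with anti-DNP-As serum; 48 h later compound given orally at 50 mg/kg in 0.5% CMCNa. Challenge 1 h post-dose with i.v. TNP-As plus Evans Blue; extravasated dye measured at 30 min, inhibition versus vehicle group, n=5.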

Structure (SMILES) | Inhibition (%) against the increase of ear thickness [1] [%] | Inhibition (%) of the airway resistance [2] [%] | Inhibition (%) of PCA reaction [3] [%]
C=COc1c(O)c(=O)oc2cc(O[C@@H]3O[C@H](CO)[C@@H](O)[C@H](O)[C@H]3O)ccc12 [compound 158] | 48.2 | 42.3 | 44.3
CC(C)=CCC/C(C)=C/COc1c(O)c(=O)oc2cc(O[C@@H]3O[C@H](CO)[C@@H](O)[C@H](O)[C@H]3O)ccc12 [compound 160] | 46.7 | 58.9 | 43.9
